Measurements reported in patent US11400137B2, “Rectal insulin for treatment of inflammatory bowel diseases” (University of Copenhagen, priority 2016, dated 2022).
Entries after “also recorded” stand apart in the source; their conditions may differ. Read-outs that look alike come from different tables or passages of the source.

Tests used:
[1] = tested on: Car3 mRNA; test: Car3 mRNA expression in colons during AOM+DSS induced intestinal inflammation; assay type: in vivo, mouse
Excerpt: On the contrary, in the INSR KO mice with inactivated insulin receptor in the intestinal epithelial cells the expression of Car3 was not increased by inflammation. Therefore it was investigated whether Car3 is a target for intestinal insulin signalling. The methodology described in Example 2 was followed.

[2] = tested on: mice with DSS induced colitis (AOM+DSS); test: AOM+DSS + rectal insulin dose-response experiment (3% DSS); assay type: in vivo, mouse
Procedure: (§1) The insulin treatment regime was as follows: Each day during DSS treatment and the following first 4 days during remission (no DSS treatment) the mice were anaesthetized with isoflurane and 600 μl PBS or PBS+0.06 units human insulin was injected intra rectally. For the injection, a syringe fitted with a flexible silicone feeding needle (for rodents) was used. The mice were placed on their back with the lower end elevated for 10 minutes while still in isoflurane anaesthesia. After recovery from anaesthesia the mice were returned to their cages. The mice were weighed daily and signs of rectal bleeding scored.
In this experiment 3% DSS was used as opposed to 2% DSS in the previous experiment (FIG. 3). During induction of inflammation there is a significant (FIG. 6, t-test, p<0.05) effect of the administration of 6 u/kg insulin whereas there is no effect of only 2 u/kg administration. Specifically the weight loss (weight at the end of DSS treatment−the weight at the beginning of the DSS treatment) is 16% less in the 6 u/kg insulin group compared to the PBS group (4.3 g in the PBS group versus 3.6 g in the 6 u/kg insulin group; see FIG. 5.

[3] = Procedure: C57BL6 mice were treated with 3% DSS in their drinking water. At the peak of inflammation, the mice were treated with rectal insulin and the blood glucose concentration measured at 0, 15, 30, 60, 90, 120 and 240 minutes. Anaesthesia was induced after the first measurement was taken at time point zero. Anaesthesia was complete at time point 15 minutes and rectal insulin instillation or PBS control instillation also begun at time point 15 minutes.
[4] = tested on: colonic epithelial cells
Excerpt: Sections of mouse colons from INSR KO mice and INSR Flox mice were stained with an antibody against the proliferation marker Ki67. Thereafter, sections of inflamed (DSS induced) colons obtained from C57BL6 mice treated with either PBS, 2 u or 6 units/kg insulin were also stained with an antibody directed against the Ki67 proliferation marker and the number of KI67 positive cells per crypt counted.

[5] = tested on: COX2 mRNA; test: COX2 mRNA expression in colons of mice with AOM+DSS induced inflammation; assay type: in vivo, mouse
Excerpt: Cyclooxygenase 2 (COX2/PTGS2) catalyzes the first step in the synthesis of the inflammatory mediators, the prostaglandins, from arachidonic acid. The expression of COX2 is increased in the colonic epithelial cells from patients with active colonic CD and UC and is therefore a biomarker for colonic inflammation in IBD.

[6] = tested on: insulin receptor mRNA; test: Colonic crypts cultured as organoids with and without insulin; assay type: cell-based; details: insulin added to organoid medium vs none (FIG. 8)
Procedure: To investigate the effect of insulin on isolated colonic epithelial cells, colonic crypts were cultured as organoids with and without the addition of insulin to the medium. […] Several mechanisms are possible. First it is possible that insulin induces differentiation of the epithelial cells and that this process increases […]. Alternatively the insulin receptor may directly stimulate its own mRNA expression by yet undescribed mechanisms. The finding is important because the positive feedback loop is expected to prolong the duration of the insulin effect on the colonic mucosa.

[7] = tested on: mice with DSS induced colitis (AOM+DSS); test: AOM+DSS colitis/carcinogenesis model, rectal insulin intervention study (2% DSS); assay type: in vivo, mouse
Excerpt: In the azoxymethane and dextran sulphate sodium (AOM/DSS) carcinogenesis/colitis model, colitis is induced by DSS which promotes AOM induced tumours. This AOM/DSS model was used on mice having intestinal specific inactivation of the insulin receptor. These mice were obtained by crossing mice (B6.129S4(FVB)-Insrtm1Khn/J) with loxP sites flanking exon 4 in the insulin receptor gene with mice (B6.Cg-Tg(Vil-cre)997Gum/J) expressing the cre-recombinase under the villin promoter (both mice were obtained commercially from the Jackson Laboratory).
The discovery that inactivated insulin signalling in the intestine augments inflammation and stimulates development of inflammation induced tumours, prompted us to the invention that insulin might be used to treat colitis. This was investigated in an intervention study. Thus, wild type mice were set up in the AOM+DSS regime and divided into two groups. One group of mice was treated with rectal administration of insulin while the control group was treated with vehicle (phosphate buffered saline; PBS).
as §1

[8] = 6 u/kg insulin, p<0.05 vs PBS, Fischer's exact test

For insulin, which “Car3 mRNA expression in colon” value ([1]; 2 u/kg rectal insulin) is on record?
Its value is “not”.

What about the “Car3 mRNA expression in colon” value ([1]; 6 u/kg rectal insulin) of the same substance?
The value was “significantly increased”.

What about the “Rectal bleeding: No bleeding (number of mice)” value ([2]; 2 u/kg insulin, PBS group 4) of the same substance?
The value was 8.

What about the “Rectal bleeding: Bleeding (number of mice)” value ([2]; 2 u/kg insulin, PBS group 9) of the same substance?
Its value is 3.

And the “weight increase in remission phase, day 8 to day 11” value ([2]; 3% DSS, 2 and 6 u/kg rectal insulin (FIG. 7))?
Its value is “dose-dependent increase in weight”.

What about the “effect on weight loss during induction of inflammation” value ([2]; 3% DSS, 2 u/kg rectal insulin) of the same substance?
The value was “no effect”.

And the “weight loss less than in the PBS group” value ([2]; 3% DSS, 6 u/kg rectal insulin)?
Its value is 16%.

And the “weight loss (weight at end of DSS treatment − weight at beginning)” value ([2]; 3% DSS, 6 u/kg rectal insulin, PBS group 4.3 g, p<0.05)?
The value was 3.6 g.

What about the “Rectal bleeding: Bleeding (number of mice)” value [2, 8] of the same substance?
Its value is 3.

And the “Rectal bleeding: No bleeding (number of mice)” value [2, 8]?
Its value is 12.

And the “blood glucose concentration vs PBS control” value ([3]; 3% DSS, peak of inflammation, 0-240 minutes, rectal insulin)?
The value was “No significant difference”.

And the “systemic uptake of insulin following rectal instillation” value ([3]; inferred from blood glucose)?
The value was “negligible”.

And the “Ki67 positive cells per crypt, staining pattern vs PBS” value ([4]; 2 u/kg rectal insulin)?
Its value is “No significant difference”.

What about the “Ki67 positive cells per crypt, staining pattern vs PBS” value ([4]; 6 units/kg rectal insulin) of the same substance?
The value was “No significant difference”.

What about the “COX2 mRNA expression in colon” value ([5]; 2 u/kg rectal insulin) of the same substance?
Its value is “significantly reduce”.

And the “COX2 mRNA expression in colon” value ([5]; 6 u/kg rectal insulin)?
Its value is “significantly reduce”.

What about the “concentration of insulin receptor mRNA” value [6] of the same substance?
The value was “increased almost two-fold”.

What about the “weight loss from DSS start (day 1) to beginning of remission (day 8)” value ([7]; 2% DSS, 0.06 units human insulin in 600 μl PBS intra rectally daily, PBS group 2.56 g, t-test p<0.05) of the same substance?
Its value is 1.68 g.

What about the “mice with tumours with a size greater than 2 mm” value ([7]; PBS group 1.3 >2 mm tumours per mouse, p<0.05) of the same substance?
Its value is 0 mice.

What about the “mice showing signs of rectal bleeding during treatment” value ([7]; all PBS mice showed bleeding, p<0.05) of the same substance?
Its value is “two”.

What about the “inflammation score by colonoscopy, late remission phase” value ([7]; blinded scoring of endoscopy videos, vs PBS) of the same substance?
Its value is “significant lower (and better) inflammation score; also recorded: improves inflammation score”.

What about the “body weight course (FIG. 3)” value ([7]; daily rectal recombinant human insulin 2 units/kg) of the same substance?
The value was “re-gained weight”.
